The source of these data is patent US20190328721A1, “METHOD OF ACTIVATING DENDRITIC CELLS” (KOREA INSTITUTE OF SCIENCE AND TECHNOLOGY, priority 2018, published 2019).

The subject of one data set is CT26.CL25 cancer cells. Kind of data set: CT26.CL25 tumor model. The settings on record: 10 mg/kg intravenous. Format: in vivo, Balb/c wild type mice. As to the method: CT26.CL25 cancer cells (1×10^6) expressing β-galactosidase were subcutaneously injected into the left back of a Balb/c wild type mice to generate a tumor model Similarly, an […] tumor model was prepared by subcutaneously injecting melanoma cell line B16F10-Ova cells (5×10^5) into the left back of C57L/B6 wild-type mice to induce cancer.
In the case of the CT26.CL25 cancer cell line, 6 days after the injection of the cancer cells, and in the case of B 16F10-Ova, 9 days after the injection of the cancer cells, Y27632 was administered by intravenous injection at a dose of 10 mg/kg as indicated in FIG. 8a. In the case of the CT26.CL25 model, the mice were sacrificed on the 22nd day after the injection of the cancer cells and in the case of the B16F10-Ova cancer model, the mice were sacrificed on the 20th day after the injection of the cancer cells (FIG. 8A). As a negative control, phosphate-buffered saline was administered instead of Y27632.
The tumor tissues of the mice were excised, an ex vivo image was taken and the tumor tissue were weighed (FIG. 8B). In addition, before the mice were sacrificed, changes in body weights were measured at intervals of 3 days from the 6th day of the cancer cell injection in the CT26.CL25 cancer model and at intervals of 3 days from the 9th day in the B16F10-Ova cancer model (FIG. 8c). Length (L) and width (W) of the tumor tissues were measured, and the volume of the tumor tissues over time was calculated using the following formula (FIGS. 8D and 8E):
The volume of tumor tissue (V[mm^3])=(L[mm])[…] (W[mm])^2×0.5.

In data set [1] the test system is bone marrow-derived macrophages (BMDMs). Kind of data set: Phagocytosis of cancer cells by bone marrow-derived macrophages in vitro. The format is cell-based, mice. As to the method: Specifically, the present inventors prepared bone marrow-derived macrophages (BMDMs) differentiated from excised bone marrow of mice using M-CSF and bone marrow-derived dendritic cells (BMDCs) differentiated from excised bone marrow using Flt3L. The degree of differentiation was confirmed by flow cytometry analysis using antibodies specifically binding to F4/80 (BMDM marker) and CD11c (BMDC marker), respectively (FIGS. 2A and 2B).
The prepared BMDMs and BMDCs were stained with 1 μM CellTracker Deep Red (Thermo Fisher Scientific, USA). 30 μM of Y27632 (Abcam, USA) or 30 μM of fasudil (Selleck Chemicals, USA) was added to each of 15×10^4 cells/ml of the stained macrophages and dendritic cells and incubated at 37° C. for 1 hour. As a negative control, macrophages or dendritic cells that were not incubated with Y27632 and fasudil were used.
Bone marrow-derived macrophages or dendritic cells prepared in RPMI medium and cancer cell lines stained with 1 μM CellTracker CMFDA (Thermo Fisher Scientific, USA) were co-cultured at about 37° C. for about 2 hours. CT26.CL25, a colon cancer cell line, and B16F10-OVA, a melanoma cell line, were used as the cancer cells.
Thereafter, the percentage of cancer cells was measured by flow cytometry, and the phagocytosis ratio of macrophages and dendritic cells against cancer cells was calculated. The results are shown in FIGS. 2C to 2F (left: cancer cell line CT26.CL25, right: cancer cell line B16F10-OVA).
In order to more accurately analyze the phagocytosis of macrophages and dendritic cells against cancer cells according to the treatment of the ROCK inhibitor, the present inventors analyzed phagocytosis of the BMDMs and BMDCs against CT26.CL25 colon cancer cells using the pHrodo-SE dye, which changes in fluorescence depending on pH. When […], the pH of the cancer cells decreased and became red. When treated with Y27632 as described above for the above-mentioned phagocytosis response, the phagocytic activities of both the BMDMs and BMDCs against cancer cells were improved.
The present inventors performed an experiment to confirm how long the phagocytosis of BMDMs and BMDCs against cancer cells due to the ROCK inhibitor is maintained. Specifically, BMDMs and BMDCs were pretreated with Y27632 for 1 hour, then Y27632 was removed, and immediately after 30 minutes, 1 hour, 2 hours, or 4 hours, the phagocytosis against CT26.CL25 and B16F10-Ova was measured using a flow cytometer. The other experimental conditions were the same as in Example 1-1.
In order to confirm whether the ROCK inhibitor increases phagocytosis against cancer cells by acting on phagocytic cells (BMDMs or BMDCs) themselves, Y27632 was used to pretreat the phagocytic cells or cancer cells for 1 hour, and the phagocytic activity was analyzed using the same procedure described in Example 1-1.
The present inventors identified through the above-mentioned results that Y27632 promotes phagocytic cells against cancer cells by inhibiting ROCK in the phagocytic cells. In order to elucidate a more detailed mechanism related to the increase of phagocytic activity by ROCK inhibitors, the present inventors analyzed phagocytosis of the phagocytic cells against cancer cells using blebbistatin (Sigma-Aldrich, USA), which can inhibit the movement of myosin light chain, which exist downstream of ROCK signaling pathway, according to the method described in Example 1-1.
Bone marrow-derived macrophages (BMDMs) treated with 30 μM of fasudil were co-cultured with B16F10-Ova malignant melanoma cells for 1 hour and the phagocytic activity of the BMDMs against apoptotic cancer cells was analyzed by flow cytometry analysis. In order to induce immunogenic apoptosis, 2.5 μM mitoxantrone (Sigma-Aldrich, USA) was administered with B16F10-Ova cells stained with CellTracker Deep Red (Thermo Fisher Scientific, USA) for 4 hours. […]

The test system of data set [2] is bone marrow-derived dendritic cells (BMDC). Kind of data set: Cross presentation of H-2Kb-Ova by BMDCs in vitro. Format: cell-based, mice. The settings on record: Y27632 30 μM, 1 hour on BMDCs; cancer cells doxorubicin treated or untreated. The protocol:
Furthermore, the inventors investigated whether the cross presentation of dendritic cells was promoted by the combination treatment of doxorubicin and Y27632. To this end, the present inventors used 30 μM of Y27632 to pretreat bone marrow-derived dendritic cells (BMDC) stained with CellTracker CMFDA (Thermo Fisher Scientific, USA) for 1 hour, followed by treatment with doxorubicin treated B16F10-Ova cells or doxorubicin untreated B16F10-Ova cells. After the co-culture, floating cancer cells were removed by withdrawing supernatant. Cross presentation activity, which is one of functions of dendritic cells, was analyzed via flow cytometry analysis using an antibody capable of detect a cancer antigen (H-2K^b-Ova) capable of activating T cells, through flow cytometry analysis using an antibody (H-2K^b monoclonal antibody, Invitrogen, USA).

The next data set concerns CT26 cancer cells. Kind of data set: CT26 tumor model. Format: in vivo, mice. The settings on record: fasudil 20 mg/kg; Y27632 10 mg/kg. As to the method: The same procedure as described above was repeated except that CT26 was used instead of the CT26.CL25 colon cancer cell line and fasudil (Selleck Chemicals, USA) at 20 mg/kg of body weight or Y27632 at 10 mg/kg of body weight was administered.

A value given as a limit tells only on which side of the number the result lay.

Take `C[C@@H](N)[C@H]1CC[C@H](C(=O)Nc2ccncc2)CC1` [Y27632]: in the data set on CT26.CL25 cancer cells, the “body weight of the mice” value is “no significant change” and the “volume of the tumors” value is on record as “significantly decreased”. In addition, the “weight of the tumors” value in the data set with CT26.CL25 cancer cells (day 22) is “significantly decreased”. In addition, in data set [1] (30 μM, 1 hour, co-culture with CT26.CL25 or B16F10-OVA about 2 hours), the “phagocytic ability of macrophages against cancer cells” value is “significantly increased”. The “phagocytic activity of BMDMs against cancer cells (pHrodo-SE dye)” value in data set [1] (CT26.CL25 colon cancer cells) is “improved”. The “phagocytosis by BMDMs against cancer cells, cancer cells pre-treated” value in data set [1] (cancer cells pretreated for 1 hour) is “not increased”. For the same compound, the “phagocytosis against cancer cells, BMDMs pretreated” value in data set [1] (phagocytic cells pretreated for 1 hour) is listed as “increased”. Besides, the “time for which BMDMs maintain phagocytosis after the pretreatment” value in data set [1] (pretreated 1 hour, then removed, CT26.CL25 and B16F10-Ova) was no more than 1 h. The “cross presentation (H-2Kb-Ova) of BMDCs co-cultured with B16F10-Ova cells” value in data set [2] is on record as “increased the cross-presentation”. Moreover, in the data set on CT26 cancer cells, the “growth of cancer (size of the tumor)” value was “inhibited the growth of cancer”.
